From ChEMBL document CHEMBL1649162, “Fenticonazole activity measured by the methods of the European Committee on Antimicrobial Susceptibility Testing and CLSI against 260 Candida vulvovaginitis isolates from two European regions and annotations on the prevalent genotypes” (2009)
Converted amounts (≈) assume the structure as drawn.

Key:
Format in all cases: functional
Nakaseomyces glabratus [1] = assay: Antimicrobial activity against Candida glabrata by EUCAST broth microdilution method
Nakaseomyces glabratus [2] = assay: Antimicrobial activity against Candida glabrata by CLSI M27-A2 broth microdilution method
Candida albicans [3] = assay: Antimicrobial activity against Candida albicans by EUCAST broth microdilution method
Candida albicans [4] = assay: Antimicrobial activity against Candida albicans by CLSI M27-A2 broth microdilution method
Candida parapsilosis [5] = assay: Antimicrobial activity against Candida parapsilosis ATCC 22019 by CLSI M27-A2 broth microdilution method; settings: Lodderomyces parapsilosis
Candida parapsilosis [6] = assay: Antimicrobial activity against Candida parapsilosis ATCC 22019 by EUCAST broth microdilution method; settings: Lodderomyces parapsilosis
Pichia kudriavzevii [7] = assay: Antimicrobial activity against Candida krusei ATCC 6258 by CLSI M27-A2 broth microdilution method
Pichia kudriavzevii [8] = assay: Antimicrobial activity against Candida krusei ATCC 6258 by EUCAST broth microdilution method

## Clc1ccc(C(Cn2ccnc2)OCc2ccc(Sc3ccccc3)cc2)c(Cl)c1 (configuration not stated) [FENTICONAZOLE]
Nakaseomyces glabratus [1]
  MIC50: 0.03 µg/mL (≈ 0.0659 µM)
Nakaseomyces glabratus [2]
  MIC50: 0.03 µg/mL (≈ 0.0659 µM)
Candida albicans [3]
  MIC50: 0.03 µg/mL (≈ 0.0659 µM)
Candida albicans [4]
  MIC50: 0.03 µg/mL (≈ 0.0659 µM)
Candida parapsilosis [5]
  MIC50: 0.03 µg/mL (≈ 0.0659 µM)
Candida parapsilosis [6]
  MIC50: 0.03 µg/mL (≈ 0.0659 µM)
Pichia kudriavzevii [7]
  MIC50: 0.06 µg/mL (≈ 0.132 µM)
Pichia kudriavzevii [8]
  MIC50: 0.06 µg/mL (≈ 0.132 µM)

## OC(Cn1cncn1)(Cn1cncn1)c1ccc(F)cc1F [FLUCONAZOLE]
Nakaseomyces glabratus [1]
  MIC50: 2 µg/mL (≈ 6.53 µM)
Nakaseomyces glabratus [2]
  MIC50: 2 µg/mL (≈ 6.53 µM)
Candida albicans [3]
  MIC50: 0.12 µg/mL (≈ 0.392 µM)
Candida albicans [4]
  MIC50: 0.12 µg/mL (≈ 0.392 µM)
Candida parapsilosis [5]
  MIC50: 2 µg/mL (≈ 6.53 µM)
Candida parapsilosis [6]
  MIC50: 0.5 µg/mL (≈ 1.63 µM)
Pichia kudriavzevii [7]
  MIC50: 16 µg/mL (≈ 52.2 µM)
Pichia kudriavzevii [8]
  MIC50: 32 µg/mL (≈ 104 µM)

## CCC(C)n1ncn(-c2ccc(N3CCN(c4ccc(OCC5COC(Cn6cncn6)(c6ccc(Cl)cc6Cl)O5)cc4)CC3)cc2)c1=O (configuration not stated) [ITRACONAZOLE]
Nakaseomyces glabratus [1]
  MIC50: 0.03 µg/mL (≈ 0.0425 µM)
Nakaseomyces glabratus [2]
  MIC50: 0.03 µg/mL (≈ 0.0425 µM)
Candida albicans [3]
  MIC50: 0.03 µg/mL (≈ 0.0425 µM)
Candida albicans [4]
  MIC50: 0.03 µg/mL (≈ 0.0425 µM)
Candida parapsilosis [5]
  MIC50: 0.06 µg/mL (≈ 0.085 µM)
Candida parapsilosis [6]
  MIC50: 0.06 µg/mL (≈ 0.085 µM)
Pichia kudriavzevii [7]
  MIC50: 0.12 µg/mL (≈ 0.17 µM)
Pichia kudriavzevii [8]
  MIC50: 0.03 µg/mL (≈ 0.0425 µM)

## CC(=O)N1CCN(c2ccc(OCC3COC(Cn4ccnc4)(c4ccc(Cl)cc4Cl)O3)cc2)CC1 (configuration not stated) [KETOCONAZOLE]
Nakaseomyces glabratus [1]
  MIC50: 2 µg/mL (≈ 3.76 µM)
Nakaseomyces glabratus [2]
  MIC50: 0.5 µg/mL (≈ 0.941 µM)
Candida albicans [3]
  MIC50: 0.12 µg/mL (≈ 0.226 µM)
Candida albicans [4]
  MIC50: 0.12 µg/mL (≈ 0.226 µM)
Candida parapsilosis [5]
  MIC50: 0.12 µg/mL (≈ 0.226 µM)
Candida parapsilosis [6]
  MIC50: 0.12 µg/mL (≈ 0.226 µM)
Pichia kudriavzevii [7]
  MIC50: 0.25 µg/mL (≈ 0.47 µM)
Pichia kudriavzevii [8]
  MIC50: 0.12 µg/mL (≈ 0.226 µM)
